Residues, ends and D or L forms follow the SMILES beside them.
Legend:
Abl kinase [1] = experiment: Validation of BacKin assay: fluorescence of kinase-treated displaying cells by flow cytometry; type: biochemical, Human; settings: after 30 min incubation with Abl kinase; 585/42 nm
Abl TK = molecular target: T1, Abl TK (Homo sapiens, UniProt P00519); experiment: BacKin assay, inhibition and substrate competition (surface-displayed abltide phosphorylation, flow cytometry); type: biochemical; settings: for IC50: 0.5 U/mL Abl kinase, 30 min at 37°C, flow cytometry, biotin-anti-PY/SAPE, average of three independent experiments±SD
T1 construct: purchased Merck Millipore
T1 sequence (P00519 whole entry): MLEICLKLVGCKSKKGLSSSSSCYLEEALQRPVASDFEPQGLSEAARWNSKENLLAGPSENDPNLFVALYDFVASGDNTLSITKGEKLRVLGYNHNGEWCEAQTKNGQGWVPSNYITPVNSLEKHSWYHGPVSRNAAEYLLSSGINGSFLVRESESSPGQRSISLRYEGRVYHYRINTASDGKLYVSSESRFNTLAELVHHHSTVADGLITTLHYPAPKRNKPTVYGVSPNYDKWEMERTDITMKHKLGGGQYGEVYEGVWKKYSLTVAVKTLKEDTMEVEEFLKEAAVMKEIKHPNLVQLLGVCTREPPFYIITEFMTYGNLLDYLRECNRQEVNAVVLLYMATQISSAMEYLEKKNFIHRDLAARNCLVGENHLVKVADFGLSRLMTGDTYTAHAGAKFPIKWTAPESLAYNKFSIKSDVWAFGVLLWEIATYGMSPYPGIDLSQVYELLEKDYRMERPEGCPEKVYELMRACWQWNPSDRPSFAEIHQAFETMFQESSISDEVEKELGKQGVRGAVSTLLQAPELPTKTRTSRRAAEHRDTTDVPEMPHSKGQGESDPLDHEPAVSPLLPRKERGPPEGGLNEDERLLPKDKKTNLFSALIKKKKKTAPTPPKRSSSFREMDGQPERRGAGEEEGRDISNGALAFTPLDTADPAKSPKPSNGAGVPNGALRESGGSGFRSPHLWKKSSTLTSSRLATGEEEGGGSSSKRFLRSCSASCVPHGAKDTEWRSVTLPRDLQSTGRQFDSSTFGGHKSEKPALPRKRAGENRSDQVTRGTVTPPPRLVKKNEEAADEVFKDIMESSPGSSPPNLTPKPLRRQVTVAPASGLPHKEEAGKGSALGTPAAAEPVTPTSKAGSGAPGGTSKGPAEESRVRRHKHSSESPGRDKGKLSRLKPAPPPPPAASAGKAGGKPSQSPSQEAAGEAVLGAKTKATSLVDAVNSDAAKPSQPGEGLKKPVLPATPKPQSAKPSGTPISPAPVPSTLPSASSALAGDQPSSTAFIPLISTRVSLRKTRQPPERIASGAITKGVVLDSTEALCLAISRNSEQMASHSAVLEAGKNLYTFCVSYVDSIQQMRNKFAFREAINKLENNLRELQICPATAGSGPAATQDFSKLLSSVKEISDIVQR

Abl kinase [2] = settings: in words
[3] = one U = 1 nmol of phosphate incorporated into 50 µM abltide per minute at 30°C, 100 µM ATP; ref Merck Millipore; cited from earlier work
Description: The kinase activity of Bcr-Abl TK is located in the Abl domain (Figure 1). […] The activity of Abl TK was first examined using LC-MS. The time-course for phosphorylation of 60 µM of soluble abltide was followed with 0.5 U/mL Abl TK in kinase buffer (50 mM Tris-HCl, 10 mM MgCl2, 0.1 mM EDTA, 2 mM dithiothreitol and 0.01% (v/v) Brij 35, NEBuffer, New England BioLa ...

Compound: abltide-displaying cells: E. coli MC1061 displaying KKGEAIYAAPFA fused via spacer GGQSGQ to the N-terminus of the eCPX display scaffold
- percentage of fluorescent cells (Abl kinase [1]): ~96%

Compound: EAIFAAPYAKKK [[Y4F,F8Y]]
- inhibition of kinase activity / competition (Abl TK; in words, peptide concentrations ranging from 64 to 0.25 µM, 0.5 U/mL kinase, 30 min, analogue tested with 500 µM ATP, average of two replicates): did not inhibit kinase activity in the concentration range tested
- phosphorylation by Abl kinase (Abl kinase [2]): is not phosphorylated by Abl kinase

Compound: CC[C@H](C)[C@H](NC(=O)[C@H](C)NC(=O)[C@@H](N)CCC(=O)O)C(=O)N[C@@H](Cc1ccc(O)cc1)C(=O)N[C@@H](C)C(=O)N[C@@H](C)C(=O)N1CCC[C@H]1C(=O)N[C@@H](Cc1ccccc1)C(=O)N[C@@H](C)C(=O)N[C@@H](CCCCN)C(=O)N[C@@H](CCCCN)C(=O)N[C@@H](CCCCN)C(=O)O [abltide] (H-EAIYAAPFAKKK-OH)
- IC50 (Abl TK; 50 µM ATP): 21.5 ± 2.64 µM
- IC50 (Abl TK; 500 µM ATP): 37.5 ± 3.95 µM

Compound: Abl TK: Human active Abl (121 kDa, 1067 U/mg, Merck Millipore)
- specific activity [3]: 1067 U/mg

From PMC3829888, “A Novel Quantitative Kinase Assay Using Bacterial Surface Display and Flow Cytometry” (PLoS ONE, 2013)
